Patent publication US8815909B2, “Diaminocyclohexane compounds and uses thereof” (Bristol-Myers Squibb Company, priority 2011, dated 2014)
Where a name gives a salt, the structure may show the parent alone.

molecular target: T1, human Y4 receptor (Homo sapiens, UniProt P50391); assay: NPY4 cAMP HTRF Agonist Assay (inhibitory cAMP assay, Gi activation by Y4 agonism); format: cell-based; settings: TABLE 2, R2 is Phenyl-CN; read-out: hY4 CAMP EC50
T1 construct: expressed in transfected cells
Summary of the method: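 Y4 agonism read as lowered forskolin-stimulated cAMP (HTRF, 1 h detection at room temperature). Stable human Y4 CHO clone, 5000 cells/well, incubated 30 min at room temperature with compounds plus forskolin and IBMX in PBS.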

T1 sequence (P50391 whole entry): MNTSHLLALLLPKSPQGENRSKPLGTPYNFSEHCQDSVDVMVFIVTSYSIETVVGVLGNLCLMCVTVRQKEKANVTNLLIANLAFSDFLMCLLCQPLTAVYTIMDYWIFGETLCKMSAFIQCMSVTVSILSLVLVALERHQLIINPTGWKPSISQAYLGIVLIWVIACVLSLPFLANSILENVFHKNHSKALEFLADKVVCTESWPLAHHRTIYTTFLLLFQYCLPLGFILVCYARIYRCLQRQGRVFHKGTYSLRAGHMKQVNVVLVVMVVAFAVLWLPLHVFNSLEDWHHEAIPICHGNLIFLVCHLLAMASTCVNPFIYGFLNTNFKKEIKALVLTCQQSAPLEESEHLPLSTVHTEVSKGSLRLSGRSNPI

Structure (SMILES)	EC50 [nM]
N#Cc1ccc(N2CCC[C@H](N[C@@H]3CCCC[C@H]3Nc3ncc4cc(F)ccc4n3)C2)cc1 [Example 283]	308
N#Cc1ccc(N2C[C@@H]3C[C@H](N[C@@H]4CCCC[C@H]4Nc4ncc(-c5ccccc5F)o4)[C@H]2C3)cc1 [Example 223]	5

Next, values leading:

EC50 [nM]	Structure (SMILES)
872	N#Cc1ccc(N2CCC[C@H](N[C@@H]3CCCC[C@H]3Nc3cc(-c4ccccc4N)ccn3)C2)cc1 [Example 275]
8	CC(=O)Nc1cc(-c2ccnc(N[C@@H]3CCCC[C@H]3N[C@H]3CCCN(c4ccc(C#N)cc4)C3)c2)ccn1 [Example 277]
290	N#Cc1ccc(N2CCC[C@H](N[C@@H]3CCCC[C@H]3Nc3cc(-c4ccc(N)cc4)ccn3)C2)cc1 [Example 239]
11	CC(C)(O)c1cccc(-c2ccnc(N[C@@H]3CCCC[C@H]3N[C@H]3CCCN(c4ccc(C#N)cc4)C3)c2)c1 [Example 260]
3	C[C@@H](O)c1cccc(-c2ccnc(N[C@@H]3CCCC[C@H]3N[C@H]3CCCN(c4ccc(C#N)cc4)C3)c2)c1 [Example 267]

same assay, conditions: TABLE 5, R2 is Pyridinyl-CF3; read-out: hY4 CAMP EC50

EC50 [nM]	Structure (SMILES)
16	NC(=O)c1cccc(-c2ccnc(N[C@@H]3CCCC[C@H]3N[C@H]3CCCN(c4ccc(C(F)(F)F)nc4)C3)c2)c1 [Example 321]

same assay, conditions: TABLE 7, R2 is Pyridinyl-oxadiazole-CH3; read-out: hY4 CAMP EC50

EC50 [nM]	Structure (SMILES)
3	Cc1nc(-c2ccc(N3CCC[C@H](N[C@@H]4CCCC[C@H]4Nc4ncc(-c5cccc(C(N)=O)c5)o4)C3)cn2)no1 [Example 397]

same assay, conditions: human Y4 receptor, cAMP; read-out: hY4 CAMP EC50

Structure (SMILES)	EC50 [nM]
Cc1nc2ccc(N3CCC[C@H](N[C@@H]4CCCC[C@H]4Nc4ncc(-c5ccc(F)cc5F)o4)C3)cn2n1 [Example 493]	47
O=C(NC1CC1)c1cccc(-c2cnc(N[C@@H]3CCCC[C@H]3N[C@H]3CCCN(c4cnc(C(F)(F)F)nc4)C3)o2)c1 [Example 411]	10
CC(C)(C)OC(=O)Nc1cccc(-c2cnc(N[C@@H]3CCCC[C@H]3N[C@H]3CCCN(c4cnc(C(F)(F)F)nc4)C3)o2)c1 [Example 410]	320
CCc1nc(-c2ccc(N3CCC[C@H](N[C@@H]4CCCC[C@H]4Nc4ncc(-c5cccc(C(N)=O)c5)o4)C3)nc2)no1 [Example 448]	2
NC(=O)c1cccc(-c2ccnc(N[C@@H]3CCCC[C@H]3N[C@H]3C[C@@H]4C[C@H]3N(c3ncc(C(F)(F)F)cn3)C4)c2)c1 [Example 424]	69

Second part, the compound after the results:

EC50 [nM]	Structure (SMILES)
39	Cc1nnc(-c2ccc(N3CCCC(N[C@@H]4CCCC[C@H]4Nc4cc(-c5ccc6c(c5)OCO6)ccn4)C3)cc2)o1 (stereo partly drawn) [Example 368]
0.2	COC(=O)Nc1cccc(-c2ccnc(N[C@@H]3CCCC[C@H]3N[C@H]3CCCN(c4ccc(-c5noc(C6CC6)n5)cc4)C3)c2)c1 [Example 458]
1	Cc1nnc(-c2ccc(N3CCC[C@H](N[C@@H]4CCCC[C@H]4Nc4cc(-c5cccc(C(N)=O)c5)ccn4)C3)cc2)o1 [Example 349]
41	NC(=O)c1cccc(-c2ccnc(N[C@@H]3CCCC[C@H]3N[C@H]3CCCN(c4ccc(F)cc4)C3)c2)c1 [Example 453]
9	Cn1nnc(-c2ccc(N3CCC[C@H](N[C@@H]4CCCC[C@H]4Nc4cc(-c5cccc(C(N)=O)c5)ccn4)C3)cc2)n1 [Example 505]

same assay, conditions: human Y4 stable CHO clonal cells, forskolin + IBMX; read-out: NPY4 cAMP HTRF Agonist Assay EC50

Structure (SMILES)	EC50 [nM]
O=[N+]([O-])c1ccc(N2C[C@@H]3C[C@H](N[C@@H]4CCCC[C@H]4Nc4ncc(-c5ccc(OC(F)(F)F)cc5)o4)[C@H]2C3)cc1 [Example 5, (1R,2R)—N1-((1R,4R,6S)-2-(4-Nitrophenyl)-2-azabicyclo[2.2.1]heptan-6-yl)-N2-(5-(4-(trifluoromethoxy)phenyl)oxazol-2-yl)cyclohexane-1,2-diamine]	9
Fc1cccc(-c2cnc(N[C@@H]3CCCC[C@H]3N[C@H]3CCCN(c4ccc(C(F)(F)F)cc4)C3)o2)c1 [Example 76, (1R,2R)—N1-(5-(3-Fluorophenyl)oxazol-2-yl)-N2-((S)-1-(4-(trifluoromethyl)phenyl)piperidin-3-yl)cyclohexane-1,2-diamine]	21
O=[N+]([O-])c1ccc(N2C[C@@H]3C[C@H](N[C@@H]4CCCC[C@H]4Nc4ncc(-c5ccc(O)cc5)o4)[C@H]2C3)cc1 [Example 16, 4-(2-((1R,2R)-2-((1R,4R,6S)-2-(4-Nitrophenyl)-2-azabicyclo[2.2.1]heptan-6-ylamino)cyclohexylamino)oxazol-5-yl)phenol]	6
FC(F)(F)Oc1ccc(-c2cnc(N[C@@H]3CCCC[C@H]3N[C@H]3CCCN(c4ccc(C(F)(F)F)cn4)C3)o2)cc1 [Example 94, (1R,2R)—N1-(5-(4-(Trifluoromethoxy)phenyl)oxazol-2-yl)-N2-((S)-1-(5-(trifluoromethyl)pyridin-2-yl)piperidin-3-yl)cyclohexane-1,2-diamine]	210
FC(F)(F)c1ccc(N2CCC[C@H](N[C@@H]3CCCC[C@H]3Nc3ncc(-c4ccccc4)s3)C2)cc1 [Example 72, (1R,2R)—N1-(5-Phenylthiazol-2-yl)-N2-((S)-1-(4-(trifluoromethyl)phenyl)piperidin-3-yl)cyclohexane-1,2-diamine]	15

The remaining lines, values ahead:

EC50 [nM]	Structure (SMILES)
3	O=[N+]([O-])c1ccc(N2CCC[C@H](N[C@@H]3CCCC[C@H]3Nc3ncc(-c4ccccc4)o3)C2)cc1 [Example 2, (1R,2R)—N1-((S)-1-(4-Nitrophenyl)piperidin-3-yl)-N2-(5-phenyloxazol-2-yl)cyclohexane-1,2-diamine]
61	c1ccc(-c2cnc(N[C@@H]3CCCC[C@H]3N[C@H]3CCCN(c4ccc(-n5cccn5)cc4)C3)o2)cc1 [Example 62, (1R,2R)—N1-((S)-1-(4-(1H-Pyrazol-1-yl)phenyl)piperidin-3-yl)-N2-(5-phenyloxazol-2-yl)cyclohexane-1,2-diamine trifluoroacetate]
208	N#Cc1ccc(N2CCC[C@H](N[C@@H]3CCCC[C@H]3Nc3cc(-c4ccc(Cl)cc4)ccn3)C2)cc1 [Example 46, 4-((S)-3-((1R,2R)-2-(4-(4-Chlorophenyl)pyridin-2-ylamino)cyclohexylamino)piperidin-1-yl)benzonitrile tris-trifluoroacetate]
89	c1ccc(-c2ccnc(N[C@@H]3CCCC[C@H]3N[C@H]3CCCN(c4ccc(-n5cccn5)cc4)C3)n2)cc1 [Example 64, (1R,2R)—N1-((S)-1-(4-(1H-Pyrazol-1-yl)phenyl)piperidin-3-yl)-N2-(4-phenylpyrimidin-2-yl)cyclohexane-1,2-diamine bis-trifluoroacetate]
217	O=[N+]([O-])c1ccc(N2CCC[C@H](N[C@@H]3CCCC[C@H]3Nc3nccc(-c4ccc(OC(F)(F)F)cc4)n3)C2)cc1 [Example 28, (1R,2R)—N1-((S)-1-(4-Nitrophenyl)piperidin-3-yl)-N2-(4-(4-(trifluoromethoxy)phenyl)pyrimidin-2-yl)cyclohexane-1,2-diamine]
19	N#Cc1ccc(N2CCC[C@H](N[C@@H]3CCCC[C@H]3Nc3cc(-c4ccc(O)cc4)ccn3)C2)cc1 [Example 45, 4-((S)-3-((1R,2R)-2-(4-(4-Hydroxyphenyl)pyridin-2-ylamino)cyclohexylamino)piperidin-1-yl)benzonitrile tris-trifluoroacetate]

same assay, conditions: second TABLE 1, R2 is Phenyl-CF3; read-out: hY4 CAMP EC50

EC50 [nM]	Structure (SMILES)
48	CC(C)(O)c1cccc(-c2cnc(N[C@@H]3CCCC[C@H]3N[C@H]3CCCN(c4ccc(C(F)(F)F)cc4)C3)o2)c1 [Example 170]
54	FC(F)(F)c1ccc(N2CCC[C@H](N[C@@H]3CCCC[C@H]3NC3=NOC(c4ccccc4)C3)C2)cc1 (stereo partly drawn) [Example 180]
546	CC(C)(O)C#Cc1ccnc(N[C@@H]2CCCC[C@H]2N[C@H]2CCCN(c3ccc(C(F)(F)F)cc3)C2)c1 [Example 162]
